According to patent US20090233342A1, “HETEROLOGOUS EXPRESSION OF PROTEORHODOPSIN PHOTOSYSTEM” (priority 2007, published 2009):

Tests used:
HF10—19P19 cells = test: Proton-pumping assay (light-driven pH change of cell suspension); assay type: cell-based, Escherichia coli; settings: PR^+ HF10—19P19 cells; CCCP 25 μM (2 h dark preincubation), DCCD 1 mM (20 h dark preincubation)
Protocol: FIG. 3. Light-activated, PR-enabled photophosphorylation in E. coli. (A) Diagram of the proposed mechanism of PR-dependent ATP synthesis. The effects of the inhibitors used are indicated. (B) Proton-pumping assays with HF10—19P19 cells. pH measurements are expressed as the pH change respect to the pH at time 0 for each sample. CCCP, 25 μM; DCCD, 1 mM. Gray boxes indicate dark periods. (C) ATP assays with HF10—19P19 cells. Results are expressed as the difference between the ATP level in the light and the ATP level in the dark, ΔATP, for each treatment.
Fosmid Library. The HOT—10m fosmid library screened in this work has been described previously (14). It contains DNA from a planktonic sample collected 10 m below the surface at the ALOHA station (22°45′ N, 158°W) of the Hawaii Ocean Time series (HOT) cloned into the copy-controlled pCC1FOS fosmid vector (Epicentre Biotechnologies, Madison, Wis.). The library host, E. coli EPI300 (Epicentre Biotechnologies), supports the copy-control option of pCC1FOS. Screening for PR Expression. High-density colony macroarrays [12,280 clones of the HOT—10m library (ref. 14)] were prepared on a Performa II filter (Genetix Ltd., Boston, Mass.) by using a Q-PixII robot (Genetix Ltd.). […] The color phenotype of individual Tn5-insertion clones was analyzed on LB plates containing chloramphenicol, kanamycin, and 0.02% L-arabinose as above. […]

PR^+ E. coli cells = assay type: cell-based, Escherichia coli; settings: for effect on photophosphorylation (light-driven ATP synthesis, ΔATP light minus dark): PR^+ HF10—19P19 cells, CCCP 25 μM (2 h dark preincubation), DCCD 1 mM (20 h dark preincubation)

Structure (SMILES)	effect on light-driven decrease in pH (PR-catalyzed proton translocation) (HF10—19P19 cells)	effect on photophosphorylation (light-driven ATP synthesis, ΔATP light minus dark) (PR^+ E. coli cells)	net gain of ATP by oxidative phosphorylation (PR^+ E. coli cells; 5 min after addition of 0.2% succinate to PR^+ cells in the dark, data not shown)
N#CC(C#N)=NNc1cccc(Cl)c1 [CCCP, carbonylcyanide m-chlorophenylhydrazone]	completely abolished	completely abolished	–
O=C(O)CCC(=O)O [succinate]	–	–	9×10^5 ATP molecules per live cell
C(=NC1CCCCC1)=NC1CCCCC1 [DCCD, N,N′-dicyclohexylcarbodiimide]	did not affect	completely abolished	–
